“And” between values parts separate entries of the source, which are not always exact repeats. Equal values may be shown once. Read-outs that look alike come from different tables or passages of the source.
How the values were obtained:
BCG pVV16-mmpL3 = type: cell-based, Mycobacterium bovis BCG
M. smegmatis = experiment: Inhibition of macromolecular synthesis (radiolabeled precursor incorporation); type: cell-based, Mycobacterium smegmatis
Method: Inhibition of macromolecular biosynthesis was assayed by measuring the incorporation of radiolabeled precursors into DNA, RNA, protein, peptidoglycan, and fatty acids in the 10% trichloroacetic acid (TCA) extracts of cells exposed to azetidines. M. smegmatis were cultured in 7H9 media supplemented with 0.05% Tween-80 and grown to an OD600 of 0.4. Cultures (5 mL) were then transferred into sterile glass tubes and preincubated with 0× , 0.5× , 0.75× and 1 × MIC99 azetidines for 1 h at 37 °C with shaking. After preincubation, 10 μL of 500 nCi/μL [methyl-^3H]thymidine, 500 nCi/μL [5,6-^3H]uridine, 500 nCi/μL L-[4,5-^3H]leucine, 500 nCi/μL [^3H]meso-diaminopimelic acid, and 500 nCi/μL [^14C]acetic acid were added to cultures to measure synthesis of DNA, RNA, protein, peptidoglycan and lipids, respectively. All cultures were incubated for 36 h, and 100 μL samples were sacrificed at 6, 12, 24, and 36 h time points by the addition of 50 μL 30%TCA/70% ethanol in Eppendorf tubes. Tubes were incubated at room temperature for 60 min to allow for precipitation of macromolecular material. Samples were individually vacuum filtered using 0.025 μm membrane filters (VSWP01300, MF-Millipore) that were prewashed with 500 μL 70% ethanol. Samples were washed with 3 × 500 μL 5% TCA, followed by 2 × 95% ethanol. Filter papers were dried and combined with 5 mL of scintillation fluid before measuring radioactive counts.

BCG = type: cell-based, Mycobacterium bovis BCG
M. bovis BCG = type: cell-based, Mycobacterium bovis BCG
BCG pTIC6-fbpA = type: cell-based, Mycobacterium bovis BCG
[1] = Mouse PK, multiple oral dosing of single compounds; type: in vivo, KM mice; settings: for half-life / AUC(0-inf) / Cmax / Tmax: 30 mg/kg
From the text: Methods for combined single dosing (BGAz001–005) and dosing of single compounds multiple times (BGAz004 and BGAz005) are described in detail in the Supporting Information (PK Data).
Report on PK results of BGAz-004 by multiple oral dosing
7 Materials and instrument combined dosing
An MS2 Turnover type oscillator was purchased from IKA Work’s Guangzhou (China), and a 5415R ChromatographicanalyseswereconductedusinganAgilent1290InfinityIIhighperformanceliquidchromatography andAgilentTechnologies6470TripleQuadLC/MS.Propranolol(≥90%inpurity,internalstandard,IS)waspurchased fromtheSigmaChemicalCo.(China).Formicacid(HPLCgrade)andmethanol(HPLCgrade)werepurchasedfrom DIKMACo.(China).Allchemicalsandsolventswereanalyticalgrade.WaterwaspurifiedusingaMillipore(AK,USA) laboratoryultra-purewatersystem(0.2μmfilter).
KMmice,weighing25–35g(BeijingVitalRiverLaboratoryAnimalTechnologyCo.,Ltd.,China)wereutilisedforthe studies.The protocols were approved by the Animal Care and Use Committee, GIBH. Animals were maintained on standard animal chow and waterad libitum, in a climate-controlled room (23±1 °C 30–70% relative humidity, a minimumof tenexchangesof roomairperhouranda12hlight/darkcycle)foroneweekpriortoexperiments.
9 Pharmacokinetic studies
Compound BGAz-004 were dissolved in the solution containing DMSO (2%), ethanol (4%), Cremophor EL (4%) and ddH2O (90%).The mice were given solution with 30 mg/kg bygastric gavagefor 3 days.Whole blood samples (100μL)wereobtainedfromtheorbitalvenousplexusatthefollowingtimepointsafterthethirddaydosing:5,15,30 min and 1, 3, 5, 8, 24 hour. Whole blood samples were collected in heparinised tubes. The plasma fraction was immediately separated by centrifugation. The mice were humanely euthanasia by carbon dioxide 24 hours after […]
10 Plasma sample analysis
10.1 Standard curve sample preparation
ThecompoundsweredissolvedinDMSO(2mg/mL)anddilutedwithtoseriesconcentration(methanol:H 2O,1:1,10 μL) and blank plasma (50 μL) were added to 1.5 mL tubes and vortexed for 3 min, then acetonitrile-containing internalstandard(150μL)wasaddedandvortexedforafurther5min,andsubsequentlyspuninacentrifugeat13000 […]
10.2 Plasma and preparation
Plasmasampleswerepreparedusingaproteinprecipitationmethod.Solution(10μL,methanolH 2O,1:1)andplasma samples(50μL)wereaddedto1.5mLtubesandvortexfor3min,thenacetonitrile-containinginternalstandard(150 μL)wasaddedandvortexfor5min,andsubsequentlyspuninacentrifugeat13000× gfor40minat4°C.
Aftercentrifugation,supernatant(100μL)wastransferto96wellplatesandanalysedbyLC-MS/MSusinganAgilent 1290InfinityIIHPLCandanAgilentTechnologies6470TripleQuadLC/MS.
Report on PK results of BGAz-005 by multiple oral dosing
13 Materials and instrument combined dosing […]
fromtheSigmaChemicalCo.(China).Formicacid(HPLCgrade)andmethanol(HPLCgrade)werepurchased from […]
15 Pharmacokinetic studies
Compound BGAz-005 were dissolved in the solution containing DMSO (2%), ethanol (4%), Cremophor EL (4%) […]
16 Plasma sample analysis
16.1 Standard curve sample preparation
16.2 Plasma and preparation

M. tuberculosis H37Rv = experiment: Mycobacterial time kill experiments (total viable counts); type: cell-based, Mycobacterium tuberculosis; settings: 96 μM, after 6 days of exposure
[2] = KM, mouse, plasma, multiple PO 30 mg/kg, times 3, mean of animals
[3] = multiple PO 30 mg/kg, times 3, mean of animals

Q: For `FC(F)(F)Oc1ccc(C2CC(CN3CCCC3)N2Cc2ccccc2OC(F)(F)F)cc1` (stereo not shown) [BGAz-002], which BCG pVV16-mmpL3 MIC (BCG pVV16-mmpL3) is on record?
A: The BCG pVV16-mmpL3 MIC was 25 µM.

Q: Which “loss of lipid biosynthesis ([14C]-acetic acid incorporation)” value (M. smegmatis; 0.5 × MIC) does the source give for `CNCC1CC(c2ccc(OC(F)(F)F)cc2)N1Cc1ccccc1OC(F)(F)F` (stereo not shown) [BGAz-005] here?
A: The value was about 50%.

Q: And the “loss of lipid biosynthesis ([14C]-acetic acid incorporation)” value (M. smegmatis; 1 × MIC)?
A: The value was about 75%.

Q: What about the “reduction of incorporation of [3H]-thymidine, [3H]-uridine, [3H]-leucine” value (M. smegmatis; 1 × MIC) of the same compound?
A: Its value is 20%.

Q: And the “effect on incorporation of [3H]-thymidine, [3H]-uridine, [3H]-leucine” value (M. smegmatis; up to 0.75 × MIC)?
A: Its value is “almost no effect”.

Q: And the “TMM and TDM in cell envelope lipids” value (BCG; 0.5 × MIC)?
A: The value was “significant reduction”.

Q: And the “TMM and TDM in cell envelope lipids” value (BCG; concentrations beyond the MIC)?
A: The value was “complete loss”.

Q: What about the “log2FoldChange, gene BCG_0001” value (M. bovis BCG) of the same compound?
A: The value was -0.2829.

Q: And the “log2FoldChange, gene BCG_0002” value (M. bovis BCG)?
A: The value was -0.6164.

Q: What about the “log2FoldChange, gene BCG_0003” value (M. bovis BCG) of the same compound?
A: The value was -0.7815.

Q: And the “log2FoldChange, gene BCG_0004” value (M. bovis BCG)?
A: Its value is -0.2846.

Q: What about the “log2FoldChange, gene BCG_0005” value (M. bovis BCG) of the same compound?
A: The value was 0.5809.

Q: And the induced genes (M. bovis BCG; 8 h exposure, 1 × MIC)?
A: Its induced genes is 160.

Q: What about the repressed genes (M. bovis BCG; 8 h exposure, 1 × MIC) of the same compound?
A: The repressed genes was 126.

Q: And the BCG pTIC6-fbpA MIC (BCG pTIC6-fbpA)?
A: The BCG pTIC6-fbpA MIC was 25 µM.

Q: What about the half-life ([1]; KM, mouse, plasma, oral, mice, read-out: blood plasma half-life) of the same compound?
A: Its half-life is over 72 h.

Q: And the AUC(0-inf) ([1]; KM, mouse, plasma, po, multiple PO 30 mg/kg, times 3, mean of animals, read-out: AUC(0-∞))?
A: Its AUC(0-inf) is 82200 ng·h/mL.

Q: And the Cmax ([1]; KM, mouse, plasma, po, multiple PO 30 mg/kg, times 3, mean of animals, read-out: Cmax)?
A: Its Cmax is 1710 ng/mL.

Q: What about the Tmax ([1]; KM, mouse, plasma, po, multiple PO 30 mg/kg, times 3, mean of animals, read-out: Tmax) of the same compound?
A: Its Tmax is 0.875 h.

Q: What about the half-life ([1]; KM, mouse, plasma, po, multiple PO 30 mg/kg, times 3, mean of animals, read-out: t1/2z (converted)) of the same compound?
A: Its half-life is 80.4 h.

Q: What about the AUC(0-inf) ([1]; KM, mouse, plasma, po, multiple PO, times 3, 30 mg/kg, summary table, read-out: AUC(0-∞)) of the same compound?
A: Its AUC(0-inf) is 82200 ng·h/mL.

Q: And the Cmax ([1]; KM, mouse, plasma, po, multiple PO, times 3, 30 mg/kg, summary table, read-out: Cmax)?
A: The Cmax was 1710 ng/mL.

Q: And the half-life ([1]; KM, mouse, plasma, po, multiple PO, times 3, 30 mg/kg, summary table, read-out: T1/2 (converted))?
A: Its half-life is 80.4 h.

Q: And the Tmax ([1]; KM, mouse, plasma, po, multiple PO, times 3, 30 mg/kg, summary table, read-out: Tmax)?
A: The Tmax was 0.875 h.

Q: What about the AUC(0-inf) ([1]; KM, mouse, plasma, po, multiple daily dosing 3 × 30 mg/kg PO, read-out: AUC0-inf) of the same compound?
A: Its AUC(0-inf) is 82200 ng·h/mL.

Q: And the Cmax ([1]; KM, mouse, plasma, po, multiple daily dosing 3 × 30 mg/kg PO, read-out: Cmax (Mouse, P.O.))?
A: The Cmax was 1710 ng/mL.

Q: And the half-life ([1]; KM, mouse, plasma, po, multiple daily dosing 3 × 30 mg/kg PO, read-out: T1/2 (Mouse, P.O.) (converted))?
A: The half-life was 80.4 h.

Q: And the Tmax ([1]; KM, mouse, plasma, po, multiple daily dosing 3 × 30 mg/kg PO, read-out: Tmax (Mouse, P.O.))?
A: The Tmax was 0.87 h.

Q: What about the concentration at 0.083 h ([1]; KM, mouse, plasma, multiple PO 30 mg/kg, times 3, 0.083 h) of the same compound?
A: Its concentration at 0.083 h is 1.97 µM and 858 ng/mL.

Q: And the concentration at 0.25 h ([1]; KM, mouse, plasma, multiple PO 30 mg/kg, times 3, 0.25 h)?
A: Its concentration at 0.25 h is 2.69 µM and 1170 ng/mL.

Q: What about the concentration at 0.5 h ([1]; KM, mouse, plasma, multiple PO 30 mg/kg, times 3, 0.5 h) of the same compound?
A: The concentration at 0.5 h was 3.53 µM and 1540 ng/mL.

Q: And the concentration at 1 h ([1]; KM, mouse, plasma, multiple PO 30 mg/kg, times 3, 1 h)?
A: The concentration at 1 h was 3.75 µM and 1630 ng/mL.

Q: And the concentration at 3 h ([1]; KM, mouse, plasma, multiple PO 30 mg/kg, times 3, 3 h)?
A: Its concentration at 3 h is 1.96 µM and 855 ng/mL.

Q: What about the concentration at 5 h ([1]; KM, mouse, plasma, multiple PO 30 mg/kg, times 3, 5 h) of the same compound?
A: The concentration at 5 h was 714 ng/mL and 1.64 µM.

Q: What about the concentration at 8 h ([1]; KM, mouse, plasma, multiple PO 30 mg/kg, times 3, 8 h) of the same compound?
A: Its concentration at 8 h is 608 ng/mL and 1.4 µM.

Q: And the concentration at 24 h ([1]; KM, mouse, plasma, multiple PO 30 mg/kg, times 3, 24 h)?
A: Its concentration at 24 h is 570 ng/mL and 1.31 µM.

Q: And the AUC [1, 2]?
A: The AUC was 16800 ng·h/mL.

Q: And the AUC(0-t) [1, 2]?
A: The AUC(0-t) was 16800 ng·h/mL.

Q: What about the CL/F ([1]; KM, mouse, plasma, multiple PO 30 mg/kg, times 3, mean of animals, read-out: CLz/F (converted)) of the same compound?
A: Its CL/F is 13.1 mL/min/kg.

Q: What about the MRT last ([1]; KM, mouse, plasma, multiple PO 30 mg/kg, times 3, mean of animals, read-out: MRT(0-t)) of the same compound?
A: Its MRT last is 10.3 h.

Q: What about the MRT inf ([1]; KM, mouse, plasma, multiple PO 30 mg/kg, times 3, mean of animals, read-out: MRT(0-∞)) of the same compound?
A: The MRT inf was 116 h.

Q: What about the Vd/F ([1]; KM, mouse, plasma, multiple PO 30 mg/kg, times 3, mean of animals, read-out: Vz/F) of the same compound?
A: The Vd/F was 34.4 L/kg.

Q: What about the k el ([1]; KM, mouse, plasma, multiple PO 30 mg/kg, times 3, mean of animals, read-out: λz (converted)) of the same compound?
A: Its k el is 1.42e-05 s⁻¹.

Q: And the “AUMC(0-t)” value [1, 3]?
A: The value was 172065.476 h*h*μg/L.

Q: And the “AUMC(0-∞)” value [1, 3]?
A: Its value is 21124940.36 h*h*μg/L.

Q: What about the C_last [1, 3] of the same compound?
A: The C_last was 394.2 ng/mL.

Q: What about the Cav [1, 3] of the same compound?
A: The Cav was 699.901 ng/mL.

Q: What about the DF [1, 3] of the same compound?
A: Its DF is 2.398.

Q: What about the “R_AUC(t/∞)” value [1, 3] of the same compound?
A: The value was 45.975%.

Q: And the “VRT(0-t)” value [1, 3]?
A: Its value is 76.208 h^2.

Q: What about the “VRT(0-∞)” value [1, 3] of the same compound?
A: Its value is 32368.115 h^2.

Q: What about the “reduction of total viable count” value (M. tuberculosis H37Rv) of the same compound?
A: The value was 3.28 ± 1.00 log10 CFU mL^–1.
